According to patent publication US9271995B2, “Agent for ameliorating brain hypofunction” (The University of Tokyo, priority 2008, dated 2016):

Experiments:
Type in all cases: in vivo
middle-aged mice [1] = test: Sleep analysis by electroencephalograms and electromyograms (aging-related sleep disorders)
Text: (§1) Mice are awake during active time in the dark phase and conversely cease their activities and have a sleep in the light phase. It is known that in aged mice, the wake-sleep rhythm is deranged to the extent of lighter sleep in the light phase and decreased activities during wake time in the dark phase. It is also known that the aging-related derangement of wake and sleep is related to hypothalamic activity and accompanied by elevated body temperatures and increased heart rates. Because these symptoms are similar to those in human patients in their middle age to senescence who complain of dissatisfaction with sleep, they serve as an appropriate model for examining the influences on sleep.
(§2) Middle-aged mice [three reared from 43 to 66 weeks of age under light-dark cycle conditions (12-hour light phase-12-hour dark phase)] were allowed to drink ManNAc solution (5 mg/ml tap water) ad libitum. During 1 week before and after the free access to the solution, […], body temperature, and locomotor activity were monitored over time using a telemeter. Also analyzed were electroencephalograms recorded during wake and sleep times in both the ManNAc non-ingestion period and the free-access period. To measure electroencephalograms and electromyograms, a mouse electroencephalogram transmitter (F20EET, Data Sciences) was implanted in each animal under anesthesia (pentobarbital, 30 mg/kg, i.v.), and electroencephalograms, electromyograms, body temperature, and locomotor activity were continuously recorded using ART (Data Sciences Company). The electroencephalograms thus obtained were analyzed using NeuroScore (Data Sciences Company), and the sleep events were classified into REM sleep and slow wave sleep. The lengths of each sleep stage were totaled and compared among the mice before and after administration and young mice.

middle-aged mice [2] = test: Telemeter monitoring of heart rate, body temperature and locomotor activity; conditions: administration of ManNAc
Text: as §1, §2

[3] = system: old mice (male C57BL6/Njcl); test: Object recognition task; conditions: ManNAc 5 mg/ml in tap water ad libitum, paired t-test, p<0.001
Experimental: (§3) • 1) Object and place recognition task experiments were performed on male C57BL6/Njcl mice in three groups. Outline of the experiments is shown in FIG. 1. • Old control group: Old mice (reared from 47 to 66 weeks of age, n=10) were allowed to drink tap water ad libitum. • Old ManNAc recipient group: Old mice (reared from 47 to 66 weeks of age, n=10) were allowed to drink tap water with ManNAc (5 mg/ml) dissolved therein ad libitum. • Young control group: Young mice (reared from 8 to 18 weeks of age, n=10) were allowed to drink tap water ad libitum. • 2) Experimental procedures: An open field test was performed to examine the tendency toward anxiety and locomotor activity, and this was followed by place recognition task and object recognition task in accordance with conventional methods (see FIG. 2). • 3) Experimental results (FIGS. 3 and 4)
(§4) When ManNAc was administered to the old mice (FIG. 4C), the exploratory behavior times for the new place (paired t-test, p<0.05) and the new object (paired t-test, p<0.001) normalized in all tasks; a capability of recognition memory equivalent to that of the young mice was shown.

[4] = system: old mice (male C57BL6/Njcl); test: Place recognition task; conditions: ManNAc 5 mg/ml in tap water ad libitum, paired t-test, p<0.05
Experimental: as §3, §4

[5] = system: old mice (male C57BL6/Njcl); test: Open field test; conditions: ManNAc 5 mg/ml in tap water ad libitum
Experimental: as §3
Open field test (FIG. 3): Moving distance in an unfamiliar planar space was compared between the old mice and the young mice.

[6] = middle-aged mice receiving ManNAc, began to be observed on day 2 after administration

For `CC(=O)N[C@@H]1C(O)O[C@H](CO)[C@@H](O)[C@@H]1O` (stereo partly drawn) [ManNAc, N-acetyl-D-mannosamine], the “day after the start of administration on which the effect on sleep begins to be evident” value (middle-aged mice [1]; extension of REM sleep time, sleep-wake rhythm) was 2 days, the REM sleep (middle-aged mice [1]; [6]) was “increased” and the slow wave sleep (middle-aged mice [1]; [6]) was “decreased”. For the same molecule, the wake time (middle-aged mice [1]; [6]) was “remarkably increased”, the “Wake, daily percentage” value (middle-aged mice [1]; middle-aged mice, 4 days after administration, ManNAc 5 mg/ml tap water ad libitum (before administration 1.8)) was 2.2% and the “REM sleep, daily percentage” value (middle-aged mice [1]; middle-aged mice, 4 days after administration, ManNAc 5 mg/ml tap water ad libitum (before administration 5.4)) was 10.0%. For the same molecule, the “Wake (major), daily percentage” value (middle-aged mice [1]; middle-aged mice, 4 days after administration, ManNAc 5 mg/ml tap water ad libitum (before administration 12.7)) was 15.3%, the “Slow wave sleep, daily percentage” value (middle-aged mice [1]; middle-aged mice, 4 days after administration, ManNAc 5 mg/ml tap water ad libitum (before administration 80.0)) was 72.5% and the “change in heart rate due to behavioral change (difference between the light and dark phases)” value (middle-aged mice [2]) was “became evident”. For the same molecule, the “difference in locomotor activity between the light and dark phases” value (middle-aged mice [2]) was “increased”, the body temperature (middle-aged mice [2]; non-active period) was “declined” and the “exploratory behavior time for the new object” value [3] was “normalized”. For the same molecule, the “exploratory behavior time for the new place” value [4] was “normalized”, the total motor activity [5] was “without influencing total motor activity” and the “rise in the tendency toward anxiety (time of stay in the central portion)” value ([5]; vs old control) was “tended to decrease slightly, but the difference was statistically insignificant”.
